Reference: patent publication US4788301A, “Novel allylic amines” (Merrell Dow Pharmaceuticals Inc., priority 1987, dated 1988)
“Also recorded” adds a separate entry of the source.

How the values were obtained:
[1] = biological target: T1, dopamine β-hydroxylase (DBH) (Bos taurus, UniProt P15101); experiment: Dopamine β-hydroxylase (DBH) inhibitory activity in vitro, time-dependent inactivation (Table I); format: biochemical; settings: for Ki: inhibition constant for inactivation of DBH; for Ki / kinact: tyramine substrate, pH 5, Kitz and Wilson; for kinact: rate of inactivation of DBH
T1 sequence (P15101 1-610): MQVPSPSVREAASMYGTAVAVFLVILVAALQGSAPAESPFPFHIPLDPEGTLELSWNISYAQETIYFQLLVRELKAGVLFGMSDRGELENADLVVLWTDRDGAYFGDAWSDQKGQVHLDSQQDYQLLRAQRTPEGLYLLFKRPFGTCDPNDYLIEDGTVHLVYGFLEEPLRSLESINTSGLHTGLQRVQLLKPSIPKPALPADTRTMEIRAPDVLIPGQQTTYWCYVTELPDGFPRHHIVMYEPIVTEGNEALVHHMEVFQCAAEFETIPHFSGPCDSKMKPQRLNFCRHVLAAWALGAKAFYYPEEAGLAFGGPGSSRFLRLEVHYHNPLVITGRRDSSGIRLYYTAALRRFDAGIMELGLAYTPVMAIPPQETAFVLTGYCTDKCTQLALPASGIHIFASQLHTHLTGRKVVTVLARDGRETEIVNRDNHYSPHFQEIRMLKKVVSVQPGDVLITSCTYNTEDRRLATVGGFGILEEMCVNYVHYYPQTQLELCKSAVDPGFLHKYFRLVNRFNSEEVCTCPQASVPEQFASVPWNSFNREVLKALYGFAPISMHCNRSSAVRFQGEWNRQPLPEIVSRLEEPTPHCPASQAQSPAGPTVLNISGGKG
Protocol: The dopamine β-hydroxylase inhibitory properties of the compounds of this invention can readily be determined by standard and well known procedures such as those procedures set forth in U.S. Pat. […] For example, determination of whether the DBH inhibition allows time-dependent kinetics is exemplified by the procedure wherein enzymatic oxygenation by DBH is determined in aqueous solution in the presence of molecular oxygen, an electron donor such as ascorbate, and the necessary cofactors for the enzyme at a pH of 5 and a temperature of 20°-40° C., preferably 37° C. The test compound is added at the desired concentration, and the system is incubated. At different time intervals, aliquots are taken and DBH activity is measured using tyramine as the substrate and the reaction followed by measuring the oxygen uptake using a polarographic electrode and an oxygen monitor by the method of S. May et al., J. Biol. Chem. 256, 2258 (1981). The inhibition constants for the inactivation of DBH by each compound are then determined by conventional procedures such as the method of Kitz and Wilson, J. Biol. Chem. 237, 3245 (1962). When the compounds shown in Table I were tested according to the above described procedure, the DBH inhibitory activity increased as a function of the time of incubation. The initial rate of decrease of activity increased with increasing concentration of inhibitor.

[2] = test system: hypertensive rats; experiment: Antihypertensive activity in vivo in hypertensive rats (Table II); design: species or system rat
Protocol: The ability of the compounds of this invention to lower blood pressure can be determined in vivo using hypertensive rats according to standard and well known procedures. The test compound is administered intraperitoneally (ip) or orally (po) to rats and the blood pressure monitored continuously. Since DBH is a major enzyme in the synthetic pathway of the catecholamines, it would be expected that the presence of an inhibitor would act to decrease the amount of catecholamines produced, and thereby have an antihypertensive effect.

[3] = test system: purified DBH; experiment: Time-dependant inhibition of purified DBH (Table III); format: biochemical
Protocol: The dopamine β-hydroxylase inhibitory properties of the compounds of this invention can readily be determined by standard and well known procedures such as those procedures set forth in U.S. Pat. No. 4,415,191. For example, determination of whether the DBH inhibition allows time-dependent kinetics is exemplified by the procedure wherein enzymatic oxygenation by DBH is determined in aqueous solution in the presence of molecular oxygen, an electron donor such as ascorbate, and the necessary cofactors for the enzyme at a pH of 5 and a temperature of 20°-40° C., preferably 37° C. The test compound is added at the desired concentration, and the system is incubated. At different time intervals, aliquots are taken and DBH activity is measured using tyramine as the substrate and the reaction followed by measuring the oxygen uptake using a polarographic electrode and an oxygen monitor by the method of S. May et al., J. Biol. Chem. 256, 2258 (1981). The inhibition constants for the inactivation of DBH by each compound are then determined by conventional procedures such as the method of Kitz and Wilson, J. Biol. Chem. 237, 3245 (1962). When the compounds shown in Table I were tested according to the above described procedure, the DBH inhibitory activity increased as a function of the time of incubation. […]

[4] = test system: Rat Brain - Mitochondrial MAO; experiment: Time-dependant inhibition of rat brain mitochondrial MAO (Table III); format: biochemical
Protocol: (§1) The compounds of this invention were conceived as mechanism-based inhibitors of DBH similar to that reported by S. May, J. Biol. Chem. 256, 2258 (1981). These compounds bear some resemblance to the catecholamines which are destroyed by the enzyme monoamine oxidase (MAO) in order to terminate neurotransmission. Because of their structural similarity to the catecholamines they may act as MAO substrates and, as such, act as k cat inhibitors of MAO. These compounds were evaluated as mechanism-based inhibitors of monooxygenasess by the method of A. Christmas et. al., Br. J. Pharmacol. 45, 490 (1972).

[5] = biological target: T2, MAO A (Rattus norvegicus, UniProt P21396); experiment: Inhibition of rat brain mitochondrial MAO A (Table III); format: biochemical
T2 construct: from tissue; host or cells: rat brain mitochondria
T2 sequence (P21396 1-526): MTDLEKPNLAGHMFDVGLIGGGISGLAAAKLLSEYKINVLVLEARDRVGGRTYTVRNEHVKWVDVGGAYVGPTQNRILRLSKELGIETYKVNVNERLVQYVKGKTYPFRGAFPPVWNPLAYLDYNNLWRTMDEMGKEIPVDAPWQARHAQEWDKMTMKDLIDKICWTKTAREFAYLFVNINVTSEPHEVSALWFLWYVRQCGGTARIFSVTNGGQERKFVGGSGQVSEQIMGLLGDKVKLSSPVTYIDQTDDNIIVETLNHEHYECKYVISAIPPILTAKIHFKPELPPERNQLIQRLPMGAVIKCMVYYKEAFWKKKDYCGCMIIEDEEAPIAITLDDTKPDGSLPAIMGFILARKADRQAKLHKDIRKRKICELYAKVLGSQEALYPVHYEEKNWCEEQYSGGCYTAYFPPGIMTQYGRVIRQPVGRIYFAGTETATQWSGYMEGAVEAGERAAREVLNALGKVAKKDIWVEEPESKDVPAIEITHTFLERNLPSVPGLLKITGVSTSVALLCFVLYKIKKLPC
Protocol: as §1

[6] = biological target: T3, MAO B (Rattus norvegicus, UniProt P19643); experiment: Inhibition of rat brain mitochondrial MAO B (Table III); format: biochemical
T3 construct: from tissue; host or cells: rat brain mitochondria
T3 sequence (P19643 1-520): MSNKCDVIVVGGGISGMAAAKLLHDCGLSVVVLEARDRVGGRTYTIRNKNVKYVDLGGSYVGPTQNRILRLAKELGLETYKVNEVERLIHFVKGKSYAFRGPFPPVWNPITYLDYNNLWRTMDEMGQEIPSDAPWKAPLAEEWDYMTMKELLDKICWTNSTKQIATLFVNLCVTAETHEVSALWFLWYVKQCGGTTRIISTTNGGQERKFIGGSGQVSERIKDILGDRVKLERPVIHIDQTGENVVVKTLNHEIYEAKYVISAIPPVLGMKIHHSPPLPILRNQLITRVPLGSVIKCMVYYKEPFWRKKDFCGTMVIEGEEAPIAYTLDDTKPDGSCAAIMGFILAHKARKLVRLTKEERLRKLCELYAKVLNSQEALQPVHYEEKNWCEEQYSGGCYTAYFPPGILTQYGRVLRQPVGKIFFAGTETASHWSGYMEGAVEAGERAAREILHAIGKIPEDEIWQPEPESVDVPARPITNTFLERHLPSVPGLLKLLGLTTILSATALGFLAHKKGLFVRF
Protocol: as §1

| SMILES | Ki [1] [µM] | kinact [1] [s⁻¹] | Relative DBH inhibitory potency of the isomers ([1]; 2- vs. 3-thiophene isomer, Table I) | Maximum % Change Mean Blood Pressure ([2]; 10 mg/kg ip) [%] | Maximum % Change Mean Blood Pressure ([2]; 30 mg/kg ip) [%] | Maximum % Change Mean Blood Pressure ([2]; 50 mg/kg po) [%] | Maximum % Change Mean Blood Pressure ([2]; 100 mg/kg ip) [%] | Maximum % Change Mean Blood Pressure ([2]; 100 mg/kg po) [%] | Maximum % Change Mean Blood Pressure ([2]; 200 mg/kg po) [%] | Time-dependant inhibition t1/2 ([3]; 5.10^-5 M final concentration, purified DBH) [min] | DBH inhibitory activity (in words) ([3]; compared with MAO inhibition) | MAO inhibition (in words) [4] | Ki [5] [µM] | MAO A Tau50 [5] [min] | Ki [6] [µM] | MAO B Tau50 [6] [min] |
| --- | --- | --- | --- | --- | --- | --- | --- | --- | --- | --- | --- | --- | --- | --- | --- | --- |
| C=C(CN)c1ccsc1 [β-Methylene-3-Thiopheneethanamine, β-methylene-3-thiopheneethanamine] | 2000 | 6.67e-05 |  |  |  |  |  |  |  |  |  |  |  |  |  |  |
| C=C(CN)c1cccs1 [β-Methylene-2-Thiopheneethanamine, β-methylene-2-thiopheneethanamine] | 2000 | 0.000333 | the more potent isomer | 11 | 22 | 11 | 52 | 14 | 14 | 7 | potent DBH inhibitory activity | weak MAO inhibitory activity; also recorded: Weak time-dependant MAO inhibitor | 320 | 2.6 | 110 | 4.9 |
